Data on 21 compounds can be found in US12692254B2, “Benzimidazole inhibitors of PAD enzymes” (BRISTOL-MYERS SQUIBB COMPANY, priority 2018, dated 2026).

A word on the IC50: it is the concentration that gives 50% inhibition.

This experiment has as its target human PAD4 (hPAD4) (Homo sapiens, UniProt Q9UM07). Nature of the experiment: RFMS human PAD4 functional assay (rapid-fire mass spectrum). Type of experiment: biochemical. Conditions: 5 nM hPAD4 enzyme, 250 μM BAEE, 50 μM Calcium; 30 min preincubation, 90 min reaction at 37° C. In short, it runs like this: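 PAD4 (10 nM) preincubated 30 min with compound (top final 50 μM), then BAEE substrate added in pH 7.5 HEPES buffer with DTT, 50 μM calcium, TPEN; 90 min at 37° C. After TCA quench, citrulline derivatized with phenyl glyoxal (4 mM final, 30 min, 37° C) and quantified by RapidFire MS against internal standard.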

human PAD4 (hPAD4), sequence (Q9UM07 whole entry): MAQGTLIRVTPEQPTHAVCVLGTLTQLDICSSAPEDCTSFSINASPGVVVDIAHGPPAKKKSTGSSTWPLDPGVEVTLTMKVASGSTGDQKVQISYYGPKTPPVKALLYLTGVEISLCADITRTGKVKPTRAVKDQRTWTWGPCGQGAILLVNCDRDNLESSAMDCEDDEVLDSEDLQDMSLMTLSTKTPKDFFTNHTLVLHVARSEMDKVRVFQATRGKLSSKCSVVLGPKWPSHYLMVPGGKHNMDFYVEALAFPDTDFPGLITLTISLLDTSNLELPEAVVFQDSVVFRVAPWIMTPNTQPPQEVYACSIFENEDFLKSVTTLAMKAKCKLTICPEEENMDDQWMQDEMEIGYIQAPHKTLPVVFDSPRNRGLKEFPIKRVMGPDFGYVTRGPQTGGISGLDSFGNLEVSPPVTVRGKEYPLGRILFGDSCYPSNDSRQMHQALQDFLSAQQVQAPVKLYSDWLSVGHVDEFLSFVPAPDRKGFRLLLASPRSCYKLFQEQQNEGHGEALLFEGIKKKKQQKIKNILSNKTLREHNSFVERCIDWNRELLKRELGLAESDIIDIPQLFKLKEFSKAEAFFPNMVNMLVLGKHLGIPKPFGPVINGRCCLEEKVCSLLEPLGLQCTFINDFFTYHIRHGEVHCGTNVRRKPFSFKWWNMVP

On to `COc1cc(C(=O)N2CC3CCC2[C@@H]3N)cc2nc(-c3cc4ccccc4n3CC3CC3)n(CC3CCN(c4ncccn4)C3)c12` (stereo in doubt) [Example 228, (1R,4R,7R)-2-{2-[1-(cyclopropylmethyl)-1H-indol-2-yl]-7-methoxy-1-{[(3S)-1-(pyrimidin-2-yl)pyrrolidin-3-yl]methyl}-1H-1,3-benzodiazole-5-carbonyl}-2-azabicyclo[2.2.1]heptan-7-amine], for which the IC50 worked out at 99 nM.

For `COc1cc(C(=O)N2C[C@H]3CC[C@@H]2[C@@H]3N)cc2nc(-c3cc4cccnc4n3CC3CC3)n(CC3CN(C(=O)c4ccccc4)C3)c12` [Example 88, (1R,4R,7R)-2-{1-[(1-benzoylazetidin-3-yl)methyl]-2-[1-(cyclopropylmethyl)-1H-pyrrolo[2,3-b]pyridin-2-yl]-7-methoxy-1H-1,3-benzodiazole-5-carbonyl}-2-azabicyclo[2.2.1]heptan-7-amine], the IC50 is 21 nM.

With `COc1cc(C(=O)N2C[C@H]3CC[C@@H]2[C@@H]3N)cc2nc(-c3cc4ccccc4n3CC3CC3)n(CC3CN(c4ccnc(C#N)n4)C3)c12` [Example 1, 4-(3-((5-((1R,4R,7R)-7-amino-2-azabicyclo[2.2.1]heptane-2-carbonyl)-2-(1-(cyclopropylmethyl)-1H-indol-2-yl)-7-methoxy-1H-benzo[d]imidazol-1-yl)methyl)azetidin-1-yl)pyrimidine-2-carbonitrile], the IC50 is 14 nM.

As for `C/C=C/C(=O)N1CC(Cn2c(-c3cc4cccnc4n3CC3CC3)nc3cc(C(=O)N4C[C@H]5CC[C@@H]4[C@@H]5N)cc(OC)c32)C1` [Example 116, (2E)-1-[3-({5-[(1R,4R,7R)-7-amino-2-azabicyclo[2.2.1]heptane-2-carbonyl]-2-[1-(cyclopropylmethyl)-1H-pyrrolo[2,3-b]pyridin-2-yl]-7-methoxy-1H-1,3-benzodiazol-1-yl}methyl)azetidin-1-yl]but-2-en-1-one], the IC50 was determined as 59 nM.

For the compound `COc1cc(C(=O)N2CC3CCC2[C@@H]3N)cc2nc(-c3cc4ccccc4n3CC3CC3)n(CC3CN(C(=O)c4cnc(C#N)nc4)C3)c12` (stereo partly drawn) [Example 463, 5-[3-({5-[(7R)-7-amino-2-azabicyclo[2.2.1]heptane-2-carbonyl]-2-[1-(cyclopropylmethyl)-1H-indol-2-yl]-7-methoxy-1H-1,3-benzodiazol-1-yl}methyl)azetidine-1-carbonyl]pyrimidine-2-carbonitrile], the IC50 came out at 73 nM.

For the compound `COc1cc(C(=O)N2C[C@H]3CC[C@@H]2[C@@H]3N)cc2nc(-c3cc4cccnc4n3CC3CC3)n(CC3CN(C(=O)C#Cc4ccccc4)C3)c12` [Example 109, 1-[3-({5-[(1R,4R,7R)-7-amino-2-azabicyclo[2.2.1]heptane-2-carbonyl]-2-[1-(cyclopropylmethyl)-1H-pyrrolo[2,3-b]pyridin-2-yl]-7-methoxy-1H-1,3-benzodiazol-1-yl}methyl)azetidin-1-yl]-3-phenylprop-2-yn-1-one], the concentration for half-maximal inhibition (IC50) was 41 nM.

For the compound `COc1cc(C(=O)N2C[C@H]3CC[C@@H]2[C@@H]3N)cc2nc(-c3cc4cccnc4n3CC3CC3)n(CC3CCN(C(=O)c4ccnc(F)c4)CC3)c12` [Example 197, (1R,4R,7R)-2-{2-[1-(cyclopropylmethyl)-1H-pyrrolo[2,3-b]pyridin-2-yl]-1-{[1-(2-fluoropyridine-4-carbonyl)piperidin-4-yl]methyl}-7-methoxy-1H-1,3-benzodiazole-5-carbonyl}-2-azabicyclo[2.2.1]heptan-7-amine], the IC50 stood at 117 nM.

Regarding `COc1cc(C(=O)N2C[C@H]3CC[C@@H]2[C@@H]3N)cc2nc(-c3cc4ccccc4n3CC3CC3)n(CC3CN(C(=O)c4ccccc4C#N)C3)c12` [Example 159, 2-[3-({5-[(1R,4R,7R)-7-amino-2-azabicyclo[2.2.1]heptane-2-carbonyl]-2-[1-(cyclopropylmethyl)-1H-indol-2-yl]-7-methoxy-1H-1,3-benzodiazol-1-yl}methyl)azetidine-1-carbonyl]benzonitrile], the half-maximal inhibitory concentration (IC50) stood at 24 nM.

For the compound `COc1cc(C(=O)N2CC3CCC2[C@@H]3N)cc2nc(-c3cc4ccccc4n3CC3CC3)n(Cc3ccn(C)n3)c12` (stereo partly drawn) [Example 498, (7R)-2-{2-[1-(cyclopropylmethyl)-1H-indol-2-yl]-7-methoxy-1-[(1-methyl-1H-pyrazol-3-yl)methyl]-1H-1,3-benzodiazole-5-carbonyl}-2-azabicyclo[2.2.1]heptan-7-amine], the half-maximal inhibitory concentration (IC50) amounted to 92 nM.

On to `CCS(=O)(=O)N1CC(n2c(-c3cc4cccnc4n3CC3CC3)nc3cc(C(=O)N4CC5CCC4[C@@H]5N)cc(OC)c32)C1` (stereo partly drawn) [Example 327, (1R,4R.,7R)-2-{2-[1-(cyclopropylmethyl)-1H-pyrrolo[2,3-b]pyridin-2-yl]-1-[1-(ethanesulfonyl)azetidin-3-yl]-7-methoy-1H-1,3-benzodiazole-5-carbonyl}-2-azabicyclo[2.2.1]heptan-7-amine], for which the IC50 was 57 nM.

With `COc1cc(C(=O)N2C[C@H](N)C[C@@H](F)C2)cc2nc(-c3cc4ccccc4n3CC3CC3)n(Cc3cn[nH]c3)c12` [Example 266, (3R,5R)-1-{2-[1-(cyclopropylmethyl)-1H-indol-2-yl]-7-methoxy-1-[(1H-pyrazol-4-yl)methyl]-1H-1,3-benzodiazole-5-carbonyl}-5-fluoropiperidin-3-amine], the 50% inhibitory concentration (IC50) was found to be 82 nM.

As to `COc1cc(C(=O)N2CC3CCC2[C@@H]3N)cc2nc(-c3cc4cccnc4n3CC3CC3)n(CC3CN(C(=O)c4ccc(F)cc4F)C3)c12` (stereo partly drawn) [Example 434, (7R)-2-{2-[1-(cyclopropylmethyl)-1H-pyrrolo[2,3-b]pyridin-2-yl]-1-{[1-(2,4-difluorobenzoyl)azetidin-3-yl]methyl}-7-methoxy-1H-1,3-benzodiazole-5-carbonyl}-2-azabicyclo[2.2.1]heptan-7-amine], the concentration for half-maximal inhibition (IC50) was found to be 33 nM.

`COc1cc(C(=O)N2CC3CCC2[C@@H]3N)cc2nc(-c3cc4cccnc4n3CC3CC3)n(C3CN(S(=O)(=O)C(F)(F)F)C3)c12` (stereo partly drawn) [Example 340, (1R,,4R,7R)-2-{2-[1-(cyclopropylmethyl)-1H-pyrrolo[2,3-b]pyridin-2-yl]-7-methoxy-1-(1-trifluoromethanesulfonylazetidin-3-yl)-1H-1,3-benzodiazole-5-carbonyl}-2-azabicyclo[2.2.1]heptan-7-amine]: the IC50 was found to be 1260 nM.

As for `COc1cc(C(=O)N2CC3CCC2[C@@H]3N)cc2nc(-c3cc4ccccc4n3CC3CC3)n(Cc3cnn(C)n3)c12` (stereo partly drawn) [Example 505, (7R)-2-{2-[1-(cyclopropylmethyl)-1H-indol-2-yl]-7-methoxy-1-[(2-methyl-2H-1,2,3-triazol-4-yl)methyl]-1H-1,3-benzodiazole-5-carbonyl}-2-azabicyclo[2.2.1]heptan-7-amine], the IC50 came to 163 nM.

As to `COc1cc(C(=O)N2C[C@H]3CC[C@@H]2[C@@H]3N)cc2nc(-c3cc4ccccc4n3CC3CC3)n(Cc3ccc(N)nc3)c12` [Example 244, (1R,4R,7R)-2-{1-[(6-aminopyridin-3-yl)methyl]-2-[1-(cyclopropylmethyl)-1H-indol-2-yl]-7-methoxy-1H-1,3-benzodiazole-5-carbonyl}-2-azabicyclo[2.2.1]heptan-7-amine], the half-inhibitory concentration (IC50) worked out at 11 nM.

On to `COc1cc(C(=O)N2C[C@H]3CC[C@@H]2[C@@H]3N)cc2nc(-c3cc4cccnc4n3CC3CC3)n(CC3CN(C(=O)c4ccnc(Cl)n4)C3)c12` [Example 126, (1R,4R,7R)-2-(1-{[1-(2-chloropyrimidine-4-carbonyl)azetidin-3-yl]methyl}-2-[1-(cyclopropylmethyl)-1H-pyrrolo[2,3-b]pyridin-2-yl]-7-methoxy-1H-1,3-benzodiazole-5-carbonyl)-2-azabicyclo[2.2.1]heptan-7-amine], for which the IC50 amounted to 108 nM.

With `COc1cc(C(=O)N2C[C@H](N)CC[C@@H]2C)cc2nc(-c3cc4ccccc4n3CC3CC3)n(CC3CN(C(=O)c4ccc(C#N)cc4)C3)c12` [Example 176, 4-[3-({5-[(2S,5R)-5-amino-2-methylpiperidine-1-carbonyl]-2-[1-(cyclopropylmethyl)-1H-indol-2-yl]-7-methoxy-1H-1,3-benzodiazol-1-yl}methyl)azetidine-1-carbonyl]benzonitrile], the half-maximal inhibitory concentration (IC50) came to 80 nM.

As for `Cc1cc(C(=O)N2CC3CCC2[C@@H]3N)cc2nc(-c3cc4cccnc4n3CC3CC3)n(CC3CN(C(=O)c4ccc(C#N)cc4)C3)c12` (stereo partly drawn) [Example 471, 4-[3-({5-[(7R)-7-amino-2-azabicyclo[2.2.1]heptane-2-carbonyl]-2-[1-(cyclopropylmethyl)-1H-pyrrolo[2,3-b]pyridin-2-yl]-7-methyl-1H-1,3-benzodiazol-1-yl}methyl)azetidine-1-carbonyl]benzonitrile], the 50% inhibitory concentration (IC50) was found to be 228 nM.

`COc1cc(C(=O)N2CCC[C@@H](N)C2)cc2nc(-c3cc4cccnc4n3CC3CC3)n(C3CN(S(C)(=O)=O)C3)c12` [Example 341, (3R)-1-{2-[1-(cyclopropylmethyl)-1H-pyrrolo[2,3-b]pyridin-2-yl]-1-(1-methanesulfonylazetidin-3-yl)-7-methoxy-IH-1,3-benzodiazole-5-carbonyl}piperidin-3-amine]: the IC50 was 2980 nM.

Regarding `COc1cc(C(=O)N2CC3CCC2[C@@H]3N)cc2nc(-c3cc4cccnc4n3CC3CC3)n(Cc3ccnn3C)c12` (stereo partly drawn) [Example 496, (7R)-2-{2-[1-(cyclopropylmethyl)-1H-pyrrolo[2,3-b]pyridin-2-yl]-7-methoxy-1-[(1-methyl-1H-pyrazol-5-yl)methyl]-1H-1,3-benzodiazole-5-carbonyl}-2-azabicyclo[2.2.1]heptan-7-amine], the IC50 was determined as 102 nM.

Turning to `COc1cc(C(=O)N2C[C@H]3CC[C@@H]2[C@@H]3N)cc2nc(-c3cc4cccnc4n3CC3CC3)n(C[C@H]3CCNC3)c12` [Example 263, (1R,4R,7R)-2-{2-[1-(cyclopropylmethyl)-1H-pyrrolo[2,3-b]pyridin-2-yl]-7-methoxy-1-{[(3S)-pyrrolidin-3-yl]methyl}-1H-1,3-benzodiazole-5-carbonyl}-2-azabicyclo[2.2.1]heptan-7-amine], the concentration for half-maximal inhibition (IC50) was found to be 20 nM.
